Counter-ions that a name gives are not always drawn. Like-named read-outs stand apart in the source and are kept apart here.
Experiments:
human GlyT1c = human GlyT1c (Homo sapiens (Human), UniProt P48067); assay: [3H]-Glycine uptake into recombinant CHO cells expressing human GlyT1; format: cell-based; details: hGlyT1c_5_CHO cells, 200 nM [3H]-glycine
Outline: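 hGlyT1c-expressing CHO cells plated at 20,000 cells/well and cultured 24 h; [3H]-glycine incorporation read continuously by solid-phase scintillation for up to 3 h. IC50 from four-parameter logistic fit using the linear uptake phase between 60 and 120 min.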

human GlyT1c transporter = human GlyT1c transporter (Homo sapiens (Human), UniProt P48067); assay: Radioligand binding assay using recombinant CHO cell membranes expressing human GlyT1; details: read-out: radioligand binding Kiapp
Sequence of human GlyT1c transporter (P48067 whole entry): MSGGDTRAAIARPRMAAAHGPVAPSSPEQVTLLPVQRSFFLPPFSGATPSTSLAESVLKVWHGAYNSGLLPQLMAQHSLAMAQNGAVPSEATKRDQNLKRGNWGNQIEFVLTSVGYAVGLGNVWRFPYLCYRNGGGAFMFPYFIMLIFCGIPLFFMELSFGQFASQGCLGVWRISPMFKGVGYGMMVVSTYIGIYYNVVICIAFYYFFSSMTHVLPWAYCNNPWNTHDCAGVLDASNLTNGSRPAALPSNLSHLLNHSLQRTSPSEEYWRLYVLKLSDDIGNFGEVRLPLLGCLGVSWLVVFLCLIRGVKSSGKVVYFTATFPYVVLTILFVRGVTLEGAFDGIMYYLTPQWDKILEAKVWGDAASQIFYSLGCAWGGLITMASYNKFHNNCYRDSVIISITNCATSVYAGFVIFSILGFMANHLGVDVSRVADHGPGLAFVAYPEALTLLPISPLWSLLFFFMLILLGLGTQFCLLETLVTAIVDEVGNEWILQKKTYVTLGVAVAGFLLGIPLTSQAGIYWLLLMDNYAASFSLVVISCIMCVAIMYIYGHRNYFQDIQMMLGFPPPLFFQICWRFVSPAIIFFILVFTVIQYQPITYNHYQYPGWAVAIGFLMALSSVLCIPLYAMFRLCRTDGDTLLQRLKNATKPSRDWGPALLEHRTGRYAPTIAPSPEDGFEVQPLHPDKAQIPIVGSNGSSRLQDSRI
Outline: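 Competition binding of [^3H]-(R)-NPTS (0.5 nM) to CHO membranes expressing human GlyT1c (50 μg/ml protein) in pH 7.5 Hepes/NaCl buffer with 1% DMSO, 1 h at room temperature. Non-specific binding defined with 10 μM Org24598; filtration and scintillation counting, one-site fit, Ki via Cheng-Prusoff.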

[1] = examples 88-204, radioligand not specified by footnote
[2] = radioligand [3H]-(R)-NPTS (examples 1-19, 22-52, 54-87)

Sequence of human GlyT1c (P48067 whole entry): as above

| SMILES | Ki (human GlyT1c transporter; [1]) [µM] | IC50 (human GlyT1c) [µM] | Ki (human GlyT1c transporter; [2]) [µM] | IC50 (human GlyT1c; hydrochloride) [µM] |
| --- | --- | --- | --- | --- |
| O=S(=O)(NCCOc1ccc2c(c1)[C@@H](C1(c3ccc(Cl)cc3)CCC1)NCC2)c1cccnc1 [Example 182, N-[2-({(1R)-1-[1-(4-Chlorophenyl)cyclobutyl]-1,2,3,4-tetrahydroisoquinolin-7-yl}oxy)ethyl]pyridine-3-sulfonamide hydrochloride] | ≤ 10 |  |  | ≤ 10 |
| O=S(=O)(NCCOc1ccc2c(c1)C(C1(c3ccc(Cl)cc3)CCC1)NCC2)c1cccc(Cl)c1 (stereo not shown) [Example 26, 3-Chloro-N-(2-{1-[1-(4-chloro-phenyl)-cyclobutyl]-1,2,3,4-tetrahydro-isoquinolin-7-yloxy}-ethyl)-benzenesulfonamide hydrochloride] |  | ≤ 1 | ≤ 10 |  |
| CC(C)(C)NS(=O)(=O)CCCOc1ccc2c(c1)C(C1(c3ccc(Cl)cc3)CCC1)NCC2 (stereo not shown) [Example 118, N-tert-Butyl-3-({1-[1-(4-chlorophenyl)cyclobutyl]-1,2,3,4-tetrahydroisoquinolin-7-yl}oxy)propane-1-sulfonamide hydrochloride] | ≤ 1 | ≤ 10 |  |  |
| O=S(=O)(CCCN1CCOCC1)NCCOc1ccc2c(c1)C(C1(c3ccc(Cl)cc3)CCC1)NCC2 (stereo not shown) [Example 201, N-[2-({1-[1-(4-Chlorophenyl)cyclobutyl]-1,2,3,4-tetrahydroisoquinolin-7-yl}oxy)ethyl]-3-(morpholin-4-yl)propane-1-sulfonamide (2E)-but-2-enedioate] | ≤ 100 | ≤ 100 |  |  |
| COc1ccccc1S(=O)(=O)NCCOc1ccc2c(c1)C(C1(c3ccc(Cl)cc3)CCC1)NCC2 (stereo not shown) [Example 18, N-(2-{1-[1-(4-Chloro-phenyl)-cyclobutyl]-1,2,3,4-tetrahydro-isoquinolin-7-yloxy}-ethyl)-2-methoxy-benzenesulfonamide hydrochloride] |  | ≤ 1 | ≤ 10 |  |
| N#Cc1ccccc1S(=O)(=O)NCCOc1ccc2c(c1)C(C1(c3ccc(Cl)cc3)CCC1)NCC2 (stereo not shown) [Example 23, N-(2-{1-[1-(4-Chloro-phenyl)-cyclobutyl]-1,2,3,4-tetrahydro-isoquinolin-7-yloxy}-ethyl)-2-cyano-benzenesulfonamide hydrochloride] |  | ≤ 10 | ≤ 10 |  |
| CCCS(=O)(=O)NCCOc1ccc2c(c1)C(C1(c3ccc(Cl)cc3)CCC1)NCC2 (stereo not shown) [Example 4, Propane-1-sulfonic acid (2-{1-[1-(4-chloro-phenyl)-cyclobutyl]-1,2,3,4-tetrahydro-isoquinolin-7-yloxy}-ethyl)-amide hydrochloride] |  | ≤ 0.1 | ≤ 0.1 |  |
| CS(=O)(=O)NCCOc1ccc2c(c1)C(C1(c3ccc(Cl)cc3)CCC1)NCC2 (stereo not shown) [Example 2, N-(2-{1-[1-(4-Chloro-phenyl)-cyclobutyl]-1,2,3,4-tetrahydro-isoquinolin-7-yloxy}-ethyl)-methanesulfonamide] |  | ≤ 0.1 | ≤ 0.1 |  |
| CCCCS(=O)(=O)NCCOc1ccc2c(c1)C(C1(c3ccc(Cl)cc3)CCC1)NCC2 (stereo not shown) [Example 16, Butane-1-sulfonic acid (2-{1-[1-(4-chloro-phenyl)-cyclobutyl]-1,2,3,4-tetrahydro-isoquinolin-7-yloxy}-ethyl)-amide hydrochloride] |  | ≤ 0.1 | ≤ 0.1 |  |
| CCCS(=O)(=O)NCCOc1cc2c(cc1F)CCNC2C1(c2ccc(Cl)cc2)CCC1 (stereo not shown) [Example 15, Propane-1-sulfonic acid (2-{1-[1-(4-chloro-phenyl)-cyclobutyl]-6-fluoro-1,2,3,4-tetrahydro-isoquinolin-7-yloxy}-ethyl)-amide hydrochloride] |  | ≤ 0.1 | ≤ 0.1 |  |
| O=S(=O)(NCCOc1ccc2c(c1)C(C1(c3ccc(Cl)cc3)CCC1)NCC2)c1ccccc1Cl (stereo not shown) [Example 25, 2-Chloro-N-(2-{1-[1-(4-chloro-phenyl)-cyclobutyl]-1,2,3,4-tetrahydro-isoquinolin-7-yloxy}-ethyl)-benzenesulfonamide hydrochloride] |  | ≤ 1 | ≤ 1 |  |
| O=S(=O)(NCCOc1cc2c(cc1F)CCNC2C1(c2ccc(Cl)cc2)CCC1)c1cccnc1 (stereo not shown) [Example 14, Pyridine-3-sulfonic acid (2-{1-[1-(4-chloro-phenyl)-cyclobutyl]-6-fluoro-1,2,3,4-tetrahydro-isoquinolin-7-yloxy}-ethyl)-amide hydrochloride] |  | ≤ 0.1 | ≤ 0.1 |  |

The next lines start with results.

| Ki (human GlyT1c transporter; [1]) [µM] | IC50 (human GlyT1c) [µM] | Ki (human GlyT1c transporter; [2]) [µM] | SMILES | IC50 (human GlyT1c; hydrochloride) [µM] |
| --- | --- | --- | --- | --- |
| ≤ 1 | ≤ 10 |  | O=S(=O)(NCc1ccc2c(c1)C(C1(c3ccc(Cl)cc3)CCC1)NCC2)c1cccnc1 (stereo not shown) [Example 108, N-({1-[1-(4-Chlorophenyl)cyclobutyl]-1,2,3,4-tetrahydroisoquinolin-7-yl}methyl)pyridine-3-sulfonamide dihydrochloride] |  |
| ≤ 10 | ≤ 10 |  | CCN(CC)CCCS(=O)(=O)NCCOc1ccc2c(c1)C(C1(c3ccc(Cl)cc3)CCC1)NCC2 (stereo not shown) [Example 194, N-[2-({1-[1-(4-Chlorophenyl)cyclobutyl]-1,2,3,4-tetrahydroisoquinolin-7-yl}oxy)ethyl]-3-(diethylamino)propane-1-sulfonamide] |  |
| ≤ 1 | ≤ 100 |  | O=S(=O)(Nc1ccccc1Oc1ccc2c(c1)C(C1(c3ccc(Cl)cc3)CCC1)NCC2)c1cccs1 (stereo not shown) [Example 116, N-[2-({1-[1-(4-Chlorophenyl)cyclobutyl]-1,2,3,4-tetrahydroisoquinolin-7-yl}oxy)phenyl]thiophene-2-sulfonamide hydrochloride] |  |
| ≤ 100 | ≤ 10 |  | CCNC(=O)NCCS(=O)(=O)NCCOc1ccc2c(c1)C(C1(c3ccc(Cl)cc3)CCC1)NCC2 (stereo not shown) [Example 202, N-[2-({1-[1-(4-Chlorophenyl)cyclobutyl]-1,2,3,4-tetrahydroisoquinolin-7-yl}oxy)ethyl]-2-[(ethylcarbamoyl)amino]ethanesulfonamide (2E)-but-2-enedioate] |  |
| ≤ 0.1 | ≤ 10 |  | CC(C)(C)CS(=O)(=O)NCCOc1ccc2c(c1)C(C1(c3ccc(Cl)cc3)CCC1)NCC2 (stereo not shown) [Example 155, N-[2-({1-[1-(4-Chlorophenyl)cyclobutyl]-1,2,3,4-tetrahydroisoquinolin-7-yl}oxy)ethyl]-2,2-dimethylpropane-1-sulfonamide hydrochloride] |  |
|  | ≤ 1 | ≤ 10 | N#Cc1ccc(S(=O)(=O)NCCOc2ccc3c(c2)C(C2(c4ccc(Cl)cc4)CCC2)NCC3)cc1 (stereo not shown) [Example 24, N-(2-{1-[1-(4-Chloro-phenyl)-cyclobutyl]-1,2,3,4-tetrahydro-isoquinolin-7-yloxy}-ethyl)-4-cyano-benzenesulfonamide hydrochloride] |  |
| ≤ 1 | ≤ 10 |  | Nc1ccc(S(=O)(=O)NCCOc2ccc3c(c2)C(C2(c4ccc(Cl)cc4)CCC2)NCC3)cn1 (stereo not shown) [Example 165, 6-Amino-N-[2-({1-[1-(4-chlorophenyl)cyclobutyl]-1,2,3,4-tetrahydroisoquinolin-7-yl}oxy)ethyl]pyridine-3-sulfonamide] |  |
|  | ≤ 10 | ≤ 10 | O=S(=O)(NCCOc1ccc2c(c1)C(C1(c3ccc(Cl)cc3)CCC1)NCC2)C(F)(F)F (stereo not shown) [Example 11, N-(2-{1-[1-(4-Chloro-phenyl)-cyclobutyl]-1,2,3,4-tetrahydro-isoquinolin-7-yloxy}-ethyl)-C,C,C-trifluoro-methanesulfonamide] |  |

— patent publication US8653100B2 (AbbVie Inc., priority 2008, dated 2014)
